In ChEMBL document CHEMBL5291721, “A preclinical secondary pharmacology resource illuminates target-adverse drug reaction associations of marketed drugs” (Nat Commun, 2023):

What was measured:
[1] = target: T1, Muscarinic acetylcholine receptor M2 (Homo sapiens, UniProt P08172); assay type: functional, cell-based
T1 sequence (P08172 whole entry): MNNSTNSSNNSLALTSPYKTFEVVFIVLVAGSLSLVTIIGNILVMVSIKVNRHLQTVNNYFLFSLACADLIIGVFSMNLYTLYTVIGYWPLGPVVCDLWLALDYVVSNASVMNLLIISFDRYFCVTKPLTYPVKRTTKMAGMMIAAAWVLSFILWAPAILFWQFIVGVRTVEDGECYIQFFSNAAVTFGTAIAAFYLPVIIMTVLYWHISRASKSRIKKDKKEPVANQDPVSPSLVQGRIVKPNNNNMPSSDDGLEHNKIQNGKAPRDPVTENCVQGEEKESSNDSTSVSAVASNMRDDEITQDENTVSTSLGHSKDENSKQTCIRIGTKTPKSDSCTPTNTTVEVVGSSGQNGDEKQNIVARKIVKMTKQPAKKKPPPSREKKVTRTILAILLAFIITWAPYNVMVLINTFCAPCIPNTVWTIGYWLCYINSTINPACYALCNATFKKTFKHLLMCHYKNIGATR

Estrogen receptor = target: T2, Estrogen receptor (Homo sapiens, UniProt P03372)
T2 sequence (P03372 whole entry): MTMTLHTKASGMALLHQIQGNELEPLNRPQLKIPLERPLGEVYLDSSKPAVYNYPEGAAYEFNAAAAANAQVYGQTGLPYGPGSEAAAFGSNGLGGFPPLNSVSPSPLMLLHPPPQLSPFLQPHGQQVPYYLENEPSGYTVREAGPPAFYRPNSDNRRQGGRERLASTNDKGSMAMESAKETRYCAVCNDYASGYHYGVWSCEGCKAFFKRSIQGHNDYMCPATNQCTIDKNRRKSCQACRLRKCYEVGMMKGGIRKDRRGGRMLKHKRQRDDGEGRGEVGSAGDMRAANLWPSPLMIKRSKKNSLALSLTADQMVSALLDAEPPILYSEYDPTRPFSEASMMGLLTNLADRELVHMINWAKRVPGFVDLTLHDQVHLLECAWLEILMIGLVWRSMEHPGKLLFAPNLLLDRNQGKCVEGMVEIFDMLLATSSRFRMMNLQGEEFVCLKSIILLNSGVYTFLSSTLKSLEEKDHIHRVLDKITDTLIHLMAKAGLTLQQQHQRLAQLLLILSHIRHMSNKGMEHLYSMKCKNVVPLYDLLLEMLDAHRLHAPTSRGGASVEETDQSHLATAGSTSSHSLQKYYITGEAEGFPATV

Cannabinoid receptor 1 = Cannabinoid receptor 1 (Homo sapiens, UniProt P21554); assay type: functional, cell-based
[2] = target: T3, 5-hydroxytryptamine receptor 1A (Homo sapiens, UniProt P08908); assay type: functional, cell-based
T3 sequence (P08908 whole entry): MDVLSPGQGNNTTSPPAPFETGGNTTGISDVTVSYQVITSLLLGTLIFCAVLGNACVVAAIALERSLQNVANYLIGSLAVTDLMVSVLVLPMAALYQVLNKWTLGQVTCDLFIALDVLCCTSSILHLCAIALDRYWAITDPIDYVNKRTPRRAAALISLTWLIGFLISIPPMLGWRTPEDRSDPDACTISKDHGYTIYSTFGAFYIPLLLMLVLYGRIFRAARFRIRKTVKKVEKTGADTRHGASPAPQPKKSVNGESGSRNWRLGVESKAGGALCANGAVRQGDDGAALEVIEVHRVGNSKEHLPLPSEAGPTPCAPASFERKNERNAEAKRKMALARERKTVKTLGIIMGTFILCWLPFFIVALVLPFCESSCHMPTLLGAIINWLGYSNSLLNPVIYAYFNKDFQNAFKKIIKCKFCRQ

Vasopressin V1a receptor = Vasopressin V1a receptor (Homo sapiens, UniProt P37288)
[3] = target: T4, Muscarinic acetylcholine receptor M1 (Homo sapiens, UniProt P11229); assay type: functional
T4 sequence (P11229 whole entry): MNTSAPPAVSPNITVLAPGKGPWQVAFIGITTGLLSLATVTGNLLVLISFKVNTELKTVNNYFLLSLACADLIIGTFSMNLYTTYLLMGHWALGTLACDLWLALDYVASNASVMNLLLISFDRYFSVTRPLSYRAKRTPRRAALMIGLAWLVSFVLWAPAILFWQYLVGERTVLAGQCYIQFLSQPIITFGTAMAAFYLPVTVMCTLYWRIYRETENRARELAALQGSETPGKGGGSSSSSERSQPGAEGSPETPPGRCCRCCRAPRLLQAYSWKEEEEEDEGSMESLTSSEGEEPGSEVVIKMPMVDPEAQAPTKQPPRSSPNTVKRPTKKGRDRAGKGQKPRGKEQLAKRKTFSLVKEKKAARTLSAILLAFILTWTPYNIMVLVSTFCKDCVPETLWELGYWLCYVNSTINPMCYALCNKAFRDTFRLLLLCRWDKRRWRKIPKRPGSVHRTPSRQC

Endothelin-1 receptor = target: T5, Endothelin-1 receptor (Homo sapiens, UniProt P25101)
T5 sequence (P25101 whole entry): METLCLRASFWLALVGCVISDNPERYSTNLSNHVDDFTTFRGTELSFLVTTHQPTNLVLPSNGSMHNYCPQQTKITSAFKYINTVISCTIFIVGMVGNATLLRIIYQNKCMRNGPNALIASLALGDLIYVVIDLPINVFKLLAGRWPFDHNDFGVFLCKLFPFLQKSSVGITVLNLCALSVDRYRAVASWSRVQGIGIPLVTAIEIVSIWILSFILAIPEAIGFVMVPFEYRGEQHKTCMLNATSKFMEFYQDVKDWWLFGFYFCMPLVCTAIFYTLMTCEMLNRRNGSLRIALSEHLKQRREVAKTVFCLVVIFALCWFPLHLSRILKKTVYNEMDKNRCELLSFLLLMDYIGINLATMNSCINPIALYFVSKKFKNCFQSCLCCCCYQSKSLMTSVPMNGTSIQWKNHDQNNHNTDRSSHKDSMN

[4] = target: Voltage-dependent L-type calcium channel subunit alpha-1C (Rattus norvegicus, UniProt P22002); assay type: functional
Further: assay procedure not described here.

Vasopressin V1a receptor, sequence (P37288 whole entry): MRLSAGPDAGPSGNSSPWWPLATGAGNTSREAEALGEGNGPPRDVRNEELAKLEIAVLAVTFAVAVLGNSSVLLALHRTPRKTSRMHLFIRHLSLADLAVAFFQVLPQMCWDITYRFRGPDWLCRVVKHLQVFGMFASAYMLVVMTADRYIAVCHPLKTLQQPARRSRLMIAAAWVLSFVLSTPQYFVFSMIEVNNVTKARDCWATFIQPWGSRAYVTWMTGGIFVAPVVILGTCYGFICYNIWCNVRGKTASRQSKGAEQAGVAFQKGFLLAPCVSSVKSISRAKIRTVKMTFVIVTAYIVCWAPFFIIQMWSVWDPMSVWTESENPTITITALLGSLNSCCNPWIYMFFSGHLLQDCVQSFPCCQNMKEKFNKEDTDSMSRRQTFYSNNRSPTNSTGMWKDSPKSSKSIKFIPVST
Voltage-dependent L-type calcium channel subunit alpha-1C, sequence (P22002 whole entry): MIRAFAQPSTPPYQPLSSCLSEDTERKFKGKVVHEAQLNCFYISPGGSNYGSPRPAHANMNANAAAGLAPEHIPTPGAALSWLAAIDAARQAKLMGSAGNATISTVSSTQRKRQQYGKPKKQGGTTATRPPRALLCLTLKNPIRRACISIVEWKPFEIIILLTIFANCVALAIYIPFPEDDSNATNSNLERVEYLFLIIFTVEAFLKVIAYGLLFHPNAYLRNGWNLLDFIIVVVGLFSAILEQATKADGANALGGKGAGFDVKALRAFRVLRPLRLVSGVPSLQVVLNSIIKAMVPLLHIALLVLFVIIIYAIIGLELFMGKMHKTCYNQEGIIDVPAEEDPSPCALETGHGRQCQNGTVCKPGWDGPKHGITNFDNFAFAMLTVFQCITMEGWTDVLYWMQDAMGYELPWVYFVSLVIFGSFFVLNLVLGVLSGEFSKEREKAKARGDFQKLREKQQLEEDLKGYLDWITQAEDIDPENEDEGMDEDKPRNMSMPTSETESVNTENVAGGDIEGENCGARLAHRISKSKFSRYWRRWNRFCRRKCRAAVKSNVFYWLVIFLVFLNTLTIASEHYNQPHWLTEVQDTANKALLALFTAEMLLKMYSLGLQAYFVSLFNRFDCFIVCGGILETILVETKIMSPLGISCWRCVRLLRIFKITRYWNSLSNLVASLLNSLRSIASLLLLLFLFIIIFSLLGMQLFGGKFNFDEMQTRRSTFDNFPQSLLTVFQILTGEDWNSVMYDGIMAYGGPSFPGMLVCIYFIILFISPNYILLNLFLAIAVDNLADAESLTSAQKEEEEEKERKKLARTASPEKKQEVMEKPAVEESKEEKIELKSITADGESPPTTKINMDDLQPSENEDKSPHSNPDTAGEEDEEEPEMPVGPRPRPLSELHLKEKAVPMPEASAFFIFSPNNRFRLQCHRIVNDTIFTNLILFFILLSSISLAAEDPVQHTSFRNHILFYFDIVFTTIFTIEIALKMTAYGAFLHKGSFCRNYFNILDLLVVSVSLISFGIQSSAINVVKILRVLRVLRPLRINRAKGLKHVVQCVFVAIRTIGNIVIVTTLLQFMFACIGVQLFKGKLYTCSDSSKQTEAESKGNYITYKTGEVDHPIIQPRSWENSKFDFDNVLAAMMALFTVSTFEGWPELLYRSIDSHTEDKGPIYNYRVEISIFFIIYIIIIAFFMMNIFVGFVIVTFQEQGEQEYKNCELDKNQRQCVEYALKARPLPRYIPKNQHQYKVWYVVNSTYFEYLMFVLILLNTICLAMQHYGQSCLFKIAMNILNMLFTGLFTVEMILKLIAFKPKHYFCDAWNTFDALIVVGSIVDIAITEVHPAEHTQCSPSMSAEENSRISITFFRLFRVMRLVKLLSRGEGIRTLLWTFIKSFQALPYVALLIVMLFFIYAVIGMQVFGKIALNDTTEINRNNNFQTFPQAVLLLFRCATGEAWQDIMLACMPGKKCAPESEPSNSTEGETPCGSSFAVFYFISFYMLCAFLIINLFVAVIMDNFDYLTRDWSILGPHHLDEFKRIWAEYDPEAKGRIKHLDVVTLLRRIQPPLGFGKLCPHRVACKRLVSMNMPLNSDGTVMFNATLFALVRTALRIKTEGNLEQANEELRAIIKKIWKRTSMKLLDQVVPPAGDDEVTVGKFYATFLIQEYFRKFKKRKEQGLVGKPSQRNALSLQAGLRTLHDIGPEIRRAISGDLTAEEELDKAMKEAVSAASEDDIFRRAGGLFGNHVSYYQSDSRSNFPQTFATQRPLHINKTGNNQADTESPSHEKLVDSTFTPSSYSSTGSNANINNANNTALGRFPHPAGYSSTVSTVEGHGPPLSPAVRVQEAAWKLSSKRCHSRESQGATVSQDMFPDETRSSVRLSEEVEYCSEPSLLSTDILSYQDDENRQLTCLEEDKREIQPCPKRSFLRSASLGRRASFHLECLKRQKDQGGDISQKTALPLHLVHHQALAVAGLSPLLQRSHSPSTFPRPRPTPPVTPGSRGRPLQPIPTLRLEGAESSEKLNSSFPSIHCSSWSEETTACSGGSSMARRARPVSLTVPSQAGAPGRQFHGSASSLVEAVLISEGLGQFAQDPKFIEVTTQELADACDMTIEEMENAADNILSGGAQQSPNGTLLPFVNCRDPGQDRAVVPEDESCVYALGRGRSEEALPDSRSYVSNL
Cannabinoid receptor 1, sequence (P21554 whole entry): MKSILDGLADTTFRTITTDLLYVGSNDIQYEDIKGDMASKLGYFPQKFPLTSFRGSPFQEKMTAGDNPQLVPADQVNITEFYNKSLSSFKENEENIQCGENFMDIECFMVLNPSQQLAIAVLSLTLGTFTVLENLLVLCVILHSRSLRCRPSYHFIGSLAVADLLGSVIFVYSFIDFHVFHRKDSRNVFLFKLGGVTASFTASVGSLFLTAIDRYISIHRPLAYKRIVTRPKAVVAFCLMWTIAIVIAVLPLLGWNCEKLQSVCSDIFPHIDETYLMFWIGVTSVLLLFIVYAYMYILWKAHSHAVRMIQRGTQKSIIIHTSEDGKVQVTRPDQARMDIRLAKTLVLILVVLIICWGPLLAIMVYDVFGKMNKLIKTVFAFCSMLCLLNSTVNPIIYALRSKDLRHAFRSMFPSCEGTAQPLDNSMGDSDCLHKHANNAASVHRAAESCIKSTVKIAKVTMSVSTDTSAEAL

AC50 [1] [µM] | AC50 (Estrogen receptor) [µM] | AC50 (Cannabinoid receptor 1) [µM] | AC50 [2] [µM] | AC50 (Vasopressin V1a receptor) [µM] | AC50 [3] [µM] | AC50 (Endothelin-1 receptor) [µM] | AC50 [4] [µM] | Structure (SMILES)
> 30 | > 30 | > 30 | > 30 | > 30 | > 30 | > 30 | > 30 | C[C@@H]1CCC[C@H](C)N1NC(=O)c1ccc(Cl)c(S(N)(=O)=O)c1 [CLOPAMIDE]
> 30 | > 30 | > 30 | > 30 | > 30 | > 30 | > 30 | > 30 | NS(=O)(=O)c1cc(C(=O)O)cc(N2CCCC2)c1Oc1ccccc1 [PIRETANIDE]
